Where two headings read alike, the source gives them in different places.
How the values were obtained:
[1] = system: SMN protein; test: SMN protein in brain and quadriceps muscle of SMNΔ7 mice (HTRF); assay type: in vivo, mouse
Experimental: (A) SMN protein in brains of C/C-allele mice. (B) SMN protein in brains of SMNΔ7 mice. (C) SMN protein in quadriceps muscle of C/C-allele mice. (D) SMN protein in quadriceps muscle of SMNΔ7 mice. C/C-allele mice and SMNΔ7 mice were treated with the compound of Example 20. One hour after the last dose, brains and quadriceps muscles were collected and levels of SMN protein were assessed by HTRF. Data represent means SEM of 5-6 animals per group and are expressed as fold change vs. vehicle-treated controls. *=p<0.05, **=p<0.01, ***=p<0.001 vs. untreated controls.
In vivo, the compound of Example 20 increases SMN protein in the brain and muscle in the severe SMNΔ7 model and the milder C/C-allele model, carrying human SMN2 transgenes. Adult C/C-allele mice were treated for 10 days with vehicle or the compound of Example 20 (1, 3 or 10 mg/kg PO, daily), and 3 days old (P3) SMNΔ7 mice were treated for 7 days with vehicle or the compound of Example 20 (0.1, 0.3, 1 or 3 mg/kg IP, daily). […] In SMNΔ7 mice, the SMN protein increase was only partial in both brain and muscle, reaching approximately 43% (brain) and 55% (muscle) of protein levels in heterozygous mice.

[2] = system: SMN1 splicing; test: Ex vivo whole blood assay, SMN1 splicing; assay type: cell-based, human; settings: whole blood cells from healthy volunteers, 4 hours
Experimental: (§1) (A) SMN2 splicing in SMA Type 1 fibroblasts. (B) SMN protein in SMA Type 1 fibroblasts. (C) SMN protein in SMA Type 1 motor neurons. (D) SMN1 and SMN2 splicing in whole blood derived from HV. Fibroblasts from SMA Type 1 patients were cultured for 24 hours (A) or 48 hours (B); motor neurons from SMA Type 1 patient iPSCs (induced Pluripotent Stem Cells) were cultured for 72 hours (C) and whole blood cells from healthy volunteers (HV) for 4 hours (D) in the presence of the compound of Example 20. SMN splicing was assessed by RT-PCR, and SMN protein levels were assessed by homogenous time-resolved fluorescence (HTRF) in fibroblast lysates, and by immunostaining for SMN in motor neurons. Data represent means standard error (SEM) of 3 evaluations per data point and are expressed as fold change vs. untreated controls. To further assess SMN2 splicing as a potential blood biomarker, an ex vivo assay was developed using whole blood cells from healthy volunteers in which SMN1 and SMN2 splicing was assessed after 4 hours treatment with the compound of Example 20 (at this time point, maximal splicing changes were achieved).

[3] = system: SMN protein; test: SMN protein assay (HTRF) in SMA patient fibroblast cells; assay type: cell-based, human; settings: SMA patient fibroblasts
Source text: The term “EC1.5x concentration for SMN protein expression” (or “EC1.5x SMN protein”) is defined as that concentration of test compound that is effective in producing 1.5 times the amount of SMN protein in an SMA patient fibroblast cell compared to the amount produced from the vehicle control.
(A) SMN2 splicing in SMA Type 1 fibroblasts. (B) SMN protein in SMA Type 1 fibroblasts. (C) SMN protein in SMA Type 1 motor neurons. (D) SMN1 and SMN2 splicing in whole blood derived from HV. […] SMN splicing was assessed by RT-PCR, and SMN protein levels were assessed by homogenous time-resolved fluorescence (HTRF) in fibroblast lysates, and by immunostaining for SMN in motor neurons. Data represent means standard error (SEM) of 3 evaluations per data point and are expressed as fold change vs. untreated controls.
The SMN HTRF (homogeneous time resolved fluorescence) assay is used to quantify the level of SMN protein in SMA patient fibroblast cells treated with test compounds. […]
Cells are thawed and cultured in DMEM-10% FBS for 72 hours. Cells are trypsinized, counted and re-suspended to a concentration of 25,000 cells/mL in DMEM-10% FBS. […] Fluorescence for each well of the plate at 665 nm and 620 nm is measured on an EnVision multilabel plate reader (Perkin-Elmer). […]

[4] = system: human SMN2 pre-mRNA; test: SMN2 splicing in SMA Type 1 fibroblasts (RT-PCR); assay type: cell-based; settings: Fibroblast, 24 hours
Experimental: as §1, with “controls.” for “controls. To further assess SMN2 splicing as a potential blood biomarker, an ex vivo assay was developed using whole blood cells from healthy volunteers in which SMN1 and SMN2 splicing was assessed after 4 hours treatment with the compound of Example 20 (at this time point, maximal splicing changes were achieved).”
The compound of Example 20 is an orally available small molecule SMN2 splicing modifier for the treatment of SMA. It has been found, that the compound of Example 20 effectively corrects the dysfunctional splicing of the human SMN2 pre-mRNA in cultured patient cells (SMA Type 1 fibroblasts) by shifting the balance of the alternative splicing reaction completely towards the inclusion of SMN2 exon 7 and the production of the full-length mRNA (FIG. 1A: EC50 29±8 nM for FL, 12±1 nM for Δ7 mRNA). […] EC1.5× was 4.7±0.7 nM and the maximum induction was 20-fold.

## Cc1cn2nc(-c3cc(=O)n4cc(N5CCNC6(CC6)C5)ccc4n3)cc(C)c2n1 [Example 20, 7-(4,7-diazaspiro[2.5]octan-7-yl)-2-(2,8-dimethylimidazo[1,2-b]pyridazin-6-yl)pyrido[1,2-a]pyrimidin-4-one]
[1]; SMNΔ7 mice
  SMN protein in brain, of protein levels in heterozygous mice: approximately 43%
  SMN protein in muscle, of protein levels in heterozygous mice: ~55%
[1]; neonatal SMNΔ7 mice, 1-3 mg/kg IP daily, 7 days from P3
  maximum increase of SMN protein levels in brain and muscle tissue: 2-3 fold
[2]
  effect on SMN1 splicing: largely unaffected
[3]
  maximal increase in SMN protein above untreated cells: 60-80%
[4]; read-out: EC50 for FL SMN2 mRNA
  EC50: 29 ± 8 nM
[4]; read-out: EC50 for Δ7 SMN2 mRNA
  EC50: 12 ± 1 nM
